Measured values from patent US6117859A, “Method of relieving chronic inflammation by using 5-alkylsulfonylsalicylanilides” (The Research Foundation of State University of New York, priority 1999, dated 2000).
Entries after “also recorded” stand apart in the source; their conditions may differ.

Columns and labels:
[1] = system: ear weight gain produced by multiple doses of TPA in mice; assay: Chronic (multiple dose) TPA mouse ear inflammation assay, ear weight gain; format: in vivo, mouse (female CD-1)
Protocol: The acute skin inflammation model described in Example 1, tests the ability of a compound to prevent inflammation and thus must be applied prophylactically. Most clinical situations, however, are present as chronic inflammatory conditions. […] The effects of the compounds of the present invention and Salifluor on chronically inflamed skin was measured in the mouse ear model that utilizes multiple TPA doses over a 10-day period to produce the inflammatory response.
The assay used female CD-1 mice (7-9 weeks of age). Following a 2-week quarantine, mice were randomly assigned to test groups (5 mice/groups). TPA (10 uL of 0.01 TPA in acetone) was administered to both the inner and outer surface of each ear (2μg/ear) on day 0,2,4,7, and 9 on protocol. On Day 7,8 and 9, two applications of test article were applied to each ear 2 and 4 hours after dosing with TPA. The test articles were administered in 10 uL aliquots to both the inner and outer surface of each ear (20 μl total/dose). […] Hydrocortisone-17-valerate (HCV, 20μg/ear) was employed as a positive control. Mice were sacrificed at Day 10 on protocol and uniform punch biopsies (approximately 8 mm dia.) were taken from each ear. While on protocol, dermal irritation was scored semiquantitatively at Day 1,3,5,8, and 10.
Inhibition of TPA stimulated increased ear weight was used as an initial measure of efficacy for all of the agents tested. One biopsy from each mouse was also quick frozen and stored at -70° C. for later assay of myleoperoxidase, an enzyme associated with infiltrating PMN, or other measure of efficacy. The remaining biopsy from each mouse treated with Trifluorosal or HCV was fixed in formalin and processed for histopathologic evaluation, including measurement of cellular infiltration (PMNs, endothelial cells, macrophages) and epidermal thickness at 20 random sites along the length of the specimen.
Initially, a dose-response curve for multiple doses of TPA to produce mouse ear weight gain was generated in order to determine the concentration of TPA to be employed in the inhibition studies. […] Another major difference between the multiple TPA dose (or chronic assay for inflammation) and the single TPA dose (or acute assay for inflammation) in the mouse ear is sensitivity to Non-steroidal antiinflammatory drugs (NSAIDs) and antihistamines.

[2] = system: TPA induced mouse ear edema; assay: Acute TPA mouse ear inflammation assay, edema (ear weight); format: in vivo
Excerpt: The anti-inflammatory effect of selected compounds of this invention were compared to those of Triclosan™ and hydrocortisone in a modified […] (TPA) mouse ear inflammation assay. TPA was used as an inflammogen rather than croton oil because TPA gives a well characterized inflammatory response at very low concentrations. […] This model can therefore be used to study the pharmacokinetics, clinical efficacy and adverse side effects of anti-inflammatory agents. To quantitate inflammation, ear punches from treated animals were used to measure increased ear mass (edema) and myeloperoxidase (MPO) activity. For the inhibition studies, ear biopsies were weighed six hours after treatment with TPA and the simultaneous application of the compound of the present invention. All the compounds were diluted in acetone. Following this, the biopsies were frozen and subsequently used to measure inhibition of MPO activity, an estimate of polymorphonuclear (PMN) […] activity in the affected area. Percent inhibition of edema was calculated as [c-t]/c x 100, where c and t are increases in ear weight in control and treated mice, respectively.
Initially a dose-response curve for TPA-induced mouse ear edema was generated in order to determine the concentration of TPA to be employed in the inhibition studies. TPA produced a theoretical dose-response curve for edema with an ED50 of 80 ng/ear and an ED90 of 200 ng/ear in two separate experiments. ED50 is the dose at which 50% of the maximum effect was observed while ED90 is the dose at which 90% of the maximum effect was observed. […] The ED50 values for the compounds tested are as follows: […]

[3] = Lipophilicity; format: physicochemical; details: compared with AMCF3-8
Excerpt: By the term "partition coefficient" as used herein for the purposes of specification and claims is meant the log10 P where P is the ratio of the molar concentrations of the compositions of the composition in octanol-water system. Partition coefficient is a measure of the lipophilic character of the compound. A partition coefficient of 4 therefore means that the ratio of the concentration of the composition in octanol to the concentration in water is 10^4 or 10,000 to 1.

Q: Which “Inhibition of ear weight gain” value ([1]; 500μg/ear, first experiment) does the source give for CCCCCCCCCCCCS(=O)(=O)c1ccc(O)c(C(=O)Nc2cccc(C(F)(F)F)c2)c1 [TMF-12] here?
A: The value was 28%.

Q: What about the “Inhibition of ear weight gain” value ([1]; 1.25 mg/ear) of the same compound?
A: The value was 37.5%.

Q: What about the “Inhibition of ear weight gain” value ([1]; 2.5 mg/ear) of the same compound?
A: The value was 27.3%.

Q: What about the “Inhibition of ear weight gain” value ([1]; 5.0 mg/ear (printed 'mc/ear' for Trifluorosal)) of the same compound?
A: The value was 34.4%.

Q: What about the “Activity in chronic assay (in words)” value ([1]; 1.25-5 mg/ear, remaining experiments) of the same compound?
A: The value was “demonstrated consistent activity”.

Q: And the “% Inhibition of Ear Weight Gain, Actual” value ([1]; multiple doses of TPA)?
A: Its value is 37.3%.

Q: And the “% Inhibition of Ear Weight Gain, Relative to Hydrocortisone (HCV) = 100%” value ([1]; multiple doses of TPA, head prints 1.25 eg/ear)?
A: The value was 61.8%.

Q: What about the ID50 edema ([2]; acute assay) of the same compound?
A: The ID50 edema was 18 μg/ear.

Q: And the “Inhibition of TPA induced mouse ear edema (in words)” value ([2]; acute assay)?
A: Its value is “inhibited TPA induced mouse ear edema in a dose-dependent fashion”.

Q: And the “Relative anti-inflammatory potency (in words)” value ([2]; acute assay)?
A: The value was “most potent of all; also recorded: more potent than AMCF3-8”.

Q: What about the “Relative anti-inflammatory potency (in words)” value ([2]; acute assay, listed as Trifluorosal) of the same compound?
A: Its value is “the most potent 5-(n-alkylsulfonyl)salicylanilide in this assay”.

Q: And the “Potency relative to Salifluor” value ([2]; acute edema assay)?
A: The value was “ten”.

Q: What about the “Lipophilicity relative to AMCF3-8” value [3] of the same compound?
A: The value was “more lipophilic than AMCF3-8”.
